What all share (format): biochemical
The target in test [1] is cathepsin S (Homo sapiens, UniProt P25774). The test can be described thus: In vitro assay for inhibition of cathepsin S. Conditions: r cathepsin S, substrate N-CBZ-Val-Val-Arg-AMC, pH 6.5, 10 min incubation at room temperature. On the procedure:
In Vitro Assay Procedure for Cathepsin S
To a 170 μl of enzyme-buffer mixture (enzyme: r cathepsin S, diluted to give approximate 30 F units/min, buffer: 100 mM sodium phosphate, 1 mM EDTA, 5 mM DTT, 0.01% Brij, pH 6.5) a 10 μL of inhibitor (dissolved in DMSO) was added. After 10 min of incubation at room temperature, a 20 μl of 1.2 mM substrate (N-CBZ-Val-Val-Arg-AMC, dissolved in DMSO) was added to initiate reaction. Reading is followed up for 10 min at the fluoroscan II plate reader (excitation at 380 nm emission at 460 nm).
(§1) A plot of percentage of inhibition vs inhibitor concentration is obtained, and IC50 is determined using a linear regression calculations (concentration of inhibitor which will give 50% inhibition).

Test [2] addresses T1, cathepsin K (Homo sapiens, UniProt P43235).
T1 sequence (P43235 115-329): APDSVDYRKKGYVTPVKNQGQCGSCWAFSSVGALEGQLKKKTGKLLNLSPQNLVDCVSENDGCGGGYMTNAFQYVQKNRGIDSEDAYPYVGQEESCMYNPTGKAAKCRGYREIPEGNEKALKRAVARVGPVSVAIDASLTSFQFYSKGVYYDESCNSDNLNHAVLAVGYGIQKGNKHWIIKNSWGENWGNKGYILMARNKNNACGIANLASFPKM
The experiment in a line: In vitro assay for inhibition of cathepsin K. The conditions noted are these: r cathepsin K, substrate N-CBZ-Phe-Arg-AMC, pH 5.5, 10 min incubation at room temperature. On the procedure:
In Vitro Assay Procedure for Cathepsin K
To a 170 μl of enzyme-buffer mixture (enzyme: r cathepsin K, diluted to give approximate 30 F units/min, buffer: 100 mM sodium acetate, 5 mM EDTA, 20 mM L-cysteine, 0.01% Brij, pH 5.5) a 10 μL of inhibitor (dissolved in DMSO) was added. After 10 min of incubation at room temperature, a 20 μl of 2.7 mM substrate (N-CBZ-Phe-Arg-AMC, dissolved in DMSO) was added to initiate reaction. Reading is followed up for 10 min at the fluoroscan II plate reader (excitation at 380 nm emission at 460 nm).
as §1

Test [3] concerns the target rat cathepsin L (Rattus norvegicus, UniProt P07154). The experiment in a line: In vitro assay for inhibition of cathepsin L. The conditions noted are these: r rat cathepsin L, substrate N-CBZ-Phe-Arg-AMC, pH 5.0, 10 min incubation at room temperature. On the procedure: In Vitro Assay Procedure for Cathepsin L
To a 170 μl of enzyme-buffer mixture (enzyme: r rat cathepsin L, diluted to give approximate 15 F units/min, buffer: 58.8 mM sodium citrate, 1.18 mM EDTA, 235 mM sodium chloride, 5 mM […], pH 5.0) a 10 μL of inhibitor (dissolved in DMSO) was added. After 10 min of incubation at room temperature, a 20 μl of 1 mM substrate (N-CBZ-Phe-Arg-AMC, dissolved in DMSO) was added to initiate reaction. Reading is followed up for 10 min at the fluoroscan reader (excitation at 380 nm emission at 460 nm).
as §1

Test [4] concerns the target rat cathepsin B (Rattus norvegicus, UniProt P00787). The test can be described thus: In vitro assay for inhibition of cathepsin B. The conditions noted are these: r rat cathepsin B, substrate N-CBZ-Phe-Arg-AMC, pH 5.1, 10 min incubation at room temperature. On the procedure:
In Vitro Assay Procedure for Cathepsin B
The compounds of formula I were tested for inhibition of cathepsin B using the known method (A. J. Barret et al., Biochem. J. 1982, 201, 189-198). To a 170 μl of enzyme-buffer mixture (enzyme: r rat cathepsin B, diluted to give approximate 10 F units/min, buffer: 56 mM sodium acetate, 1.124 mM EDTA, 10 mM DTT, pH 5.1) a 10 μL of inhibitor (dissolved in DMSO) was added. After 10 min of incubation at room temperature, a 20 μl of 5 mM substrate (N-CBZ-Phe-Arg-AMC, dissolved in DMSO) was added to initiate reaction. Reading is followed up for 10 min at the fluoroscan reader (excitation at 380 nm emission at 460 nm).
as §1

Structures are written as SMILES. Bounds are passed on as bounds.

Sequence of rat cathepsin L (P07154 114-334): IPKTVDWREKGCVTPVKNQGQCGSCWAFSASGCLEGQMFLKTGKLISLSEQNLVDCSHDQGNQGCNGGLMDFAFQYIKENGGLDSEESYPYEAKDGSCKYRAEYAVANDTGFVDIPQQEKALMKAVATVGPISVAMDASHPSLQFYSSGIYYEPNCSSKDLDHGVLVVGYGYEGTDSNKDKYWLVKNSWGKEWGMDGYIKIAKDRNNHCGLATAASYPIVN
Sequence of rat cathepsin B (P00787 80-333): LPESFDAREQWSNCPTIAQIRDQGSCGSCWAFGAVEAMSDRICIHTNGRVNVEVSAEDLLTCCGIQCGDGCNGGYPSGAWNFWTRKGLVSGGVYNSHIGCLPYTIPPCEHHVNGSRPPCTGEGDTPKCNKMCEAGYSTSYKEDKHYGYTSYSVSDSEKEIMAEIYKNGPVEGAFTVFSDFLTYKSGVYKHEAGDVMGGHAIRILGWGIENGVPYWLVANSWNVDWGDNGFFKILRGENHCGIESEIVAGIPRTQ
Sequence of cathepsin S (P25774 115-331, species assumed): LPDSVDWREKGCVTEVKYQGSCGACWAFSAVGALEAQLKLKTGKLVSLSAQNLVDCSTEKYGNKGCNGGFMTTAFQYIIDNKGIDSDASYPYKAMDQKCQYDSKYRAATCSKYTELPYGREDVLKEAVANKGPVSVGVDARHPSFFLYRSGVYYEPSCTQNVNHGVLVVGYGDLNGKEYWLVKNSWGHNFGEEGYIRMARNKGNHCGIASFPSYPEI

As usually defined, the IC50 is the concentration that gives 50% inhibition. `CCOC(=O)/C(=C\N1CCOCC1)NC(=O)[C@H](CC(C)C)NC(=O)OCc1ccccc1` [Example 23, Ethyl-2-[2S-(benzyloxycarbonylamino)-2-isopropylmethyl-acetamido]-2-(morpholino-1-methylenyl)-acetate]: the IC50 in test [1] is 0.038 µM; in test [2], 0.011 µM; in test [3], 0.089 µM; in test [4], 0.45 µM.
On the same counts, the results for `CCOC(=O)/C(=C\N1CCN(C)CC1)NC(=O)[C@H](CC(C)C)NC(=O)OCc1ccccc1` [Example 21, Ethyl-2-[2S-(benzyloxycarbonylamino)-2-isopropylmethyl-acetamido]-2-(4-methylpiperazino-1-methylenyl)-acetate] are 0.3 µM, 0.087 µM, 0.21 µM and 8.21 µM.
For `NC(=O)C(NC(=O)[C@H](Cc1ccccc1)NC(=O)OCc1ccccc1)C(O)O` (stereo partly drawn) [Example 13, 2-(2S-2-Benzyloxycarbonylamino-2-benzyl-acetamido)-3,3-dihydroxy-propionamide], in that order: 0.004 µM, 0.4 µM, 0.004 µM and 1.4 µM.
On the same counts, the results for `CC(=O)N/C=C(\NC(=O)[C@H](CC(C)C)NC(=O)OCc1ccccc1)C(N)=O` [Example 10b, (2Z)-(2S-2-Benzyloxycarbonylamino-2-isopropylmethyl-acetamido)-3-acetamido-acrylamide] are above 3.2 µM, 10.7 µM, above 64 µM and 50.5 µM.
As to `CCOC(=O)/C(=C\N1CCOCC1)NC(=O)[C@H](Cc1ccccc1)NC(=O)OCc1ccccc1` [Example 22, Ethyl-2-[2S-(benzyloxycarbonylamino)-2-phenylmethyl-acetamido]-2-(morpholino-1-methylenyl)-acetate], the IC50 in test [1] amounted to 0.42 µM; in test [2], 0.04 µM; in test [3], 0.04 µM; in test [4], 0.08 µM.
Turning to `CC(C)C[C@H](NC(=O)OCc1ccccc1)C(=O)N/C(=C/N1CCOCC1)C(=O)c1ccc(F)cc1` [Example 29, 2-[2S-(Benzyloxycarbonylamino)-2-isopropylmethyl-acetamido]-2-(morpholino-1-methylenyl)-4′-fluoroacetophenone], the IC50 in test [1] is 50.3 µM; in test [2] it was 0.34 µM; in test [3], 2.01 µM; in test [4] it was 50.3 µM.
Regarding `CC(C)C[C@H](NC(=O)OCc1ccccc1)C(=O)NC(=CNCc1ccccc1)C(=O)NCc1ccccc1` [Example 16, 2-(2S-2-Benzyloxycarbonylamino-2-isopropylmethyl-acetamido)-3-benzylamino-N-benzyl-acrylamide], the IC50 in test [1] stood at 0.026 µM; in test [2], 0.01 µM; in test [3], 0.015 µM; in test [4], 0.15 µM.
On the same counts, the results for `CCOC(=O)/C(=C\N1CCOCC1)NC(=O)[C@H](CC1CCCCC1)NC(=O)OCc1ccccc1` [Example 24, Ethyl-2-[2S-(benzyloxycarbonylamino)-2-cyclohexylmethyl-acetamido]-2-(morpholino-1-methylenyl)-acetate] are 0.0033 µM, 0.37 µM, 0.082 µM and 0.082 µM.
On the same counts, the results for `O=C(CCc1ccccc1)N[C@@H](Cc1ccccc1)C(=O)N/C(=C/N1CCOCC1)C(=O)OC(c1ccccc1)c1ccccc1` [Example 25, Diphenylmethyl-2-[2S-(3-phenylpropionylamino)-2-phenylmethyl-acetamido]-2-(morpholino-1-methylenyl)-acetate] are 0.18 µM, 0.065 µM, 0.18 µM and 0.06 µM.
On the same counts, the results for `COc1ccc(C(=O)/C(=C\N2CCOCC2)NC(=O)[C@H](CC(C)C)NC(=O)OCc2ccccc2)cc1` [Example 28, 2-[2S-(Benzyloxycarbonylamino)-2-isopropylmethyl-acetamido]-2-(morpholino-1-methylenyl)-4′-methoxyacetophenone] are 1.3 µM, 0.016 µM, 0.27 µM and 1.96 µM.
For the compound `CC(=O)N/C=C(\NC(=O)[C@H](CC1CCCCC1)NC(=O)OCc1ccccc1)C(N)=O` [Example 19b, (2Z)-(2S-2-Benzyloxycarbonylamino-2-cyclohexylmethyl-acetamido)-3-acetamido-acrylamide], the half-maximal inhibitory concentration (IC50) in test [1] was 5.23 µM; in test [2], above 58 µM; in test [3] it was at least 58 µM; in test [4], above 58 µM.
With `CC(C)C[C@H](NC(=O)OCc1ccccc1)C(=O)N/C(=C/N1CCOCC1)C(=O)OC(C)(C)C` [Example 20, tert-Butyl-2-[2S-(benzyloxycarbonylamino)-2-isopropylmethyl-acetamido]-2-(morpholino-1-methylenyl)-acetate], the IC50 in test [1] turned out to be 0.38 µM; in test [2] it was 0.004 µM; in test [3], 0.08 µM; in test [4] it was 0.42 µM.
For `COC(=O)CN/C=C(/NC(=O)[C@H](Cc1ccccc1)NC(=O)OCc1ccccc1)C(N)=O` [Example 31a, (2E)-(2S-2-Benzyloxycarbonylamino-2-phenylmethyl-acetamido)-3-(1-carbomethoxy-methylamino)-acrylamide], in that order: 0.7 µM, 0.13 µM, 0.017 µM and 0.66 µM.
On the same counts, the results for `COC(=O)CN/C=C(\NC(=O)[C@H](Cc1ccccc1)NC(=O)OCc1ccccc1)C(N)=O` [Example 31b, (2Z)-(2S-2-Benzyloxycarbonylamino-2-phenylmethyl-acetamido)-3-(1-carbomethoxy-methylamino)-acrylamide] are 0.43 µM, 0.09 µM, 0.017 µM and 0.43 µM.
For `COc1ccc(C(=O)/C(=C\N2CCOCC2)NC(=O)[C@H](CC(C)C)NC(=O)c2cc3ccccc3s2)cc1` [Example 26, 2-[2S-(Benzothiophen-2-carbonylamino)-2-isopropylmethyl-acetamido]-2-(morpholino-1-methylenyl)-4′-methoxyacetophenone], in that order: 0.99 µM, 0.015 µM, 0.075 µM and 1.47 µM.
Turning to `COC(=O)[C@H](Cc1ccccc1)N/C=C(/NC(=O)[C@H](Cc1ccccc1)NC(=O)OCc1ccccc1)C(N)=O` [Example 30a, (2E)-(2S-2-Benzyloxycarbonylamino-2-phenylmethyl-acetamido)-3-(1-carbomethoxy-2-phenethylamino)-acrylamide], the IC50 in test [1] came to 0.57 µM; in test [2] it was 0.28 µM; in test [3] it was 0.048 µM; in test [4], 1.83 µM.
For `COC(=O)[C@H](Cc1ccccc1)N/C=C(\NC(=O)[C@H](Cc1ccccc1)NC(=O)OCc1ccccc1)C(N)=O` [Example 30b, (2Z)-(2S-2-Benzyloxycarbonylamino-2-phenylmethyl-acetamido)-3-(1-carbomethoxy-2-phenethylamino)-acrylamide], in that order: 1.21 µM, 0.28 µM, 0.035 µM and 1.83 µM.

The values above are taken from US6635621B1, “Cysteine protease inhibitors” (Naeja Pharmaceutical Inc., priority 1999, dated 2003).
